Assay results reported in the supplement of paper PMC11451515.

Legend:
SEM cells [1] = assay: cell viability relative to DMSO control; higher = less cytotoxic; details: 48 h
Procedure, shortened: (§1)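 Before seeding, each leukemia line was adapted for at least four passages in each medium. NOMO1 or SEM cells (500 cells/well) and P12-Ichikawa cells (1000 cells/well) went into 1536-well plates at 5 μl, then received library compounds in DMSO by pin dosing across 11 threefold concentrations, 47 μM to 0.79 nM. Readout was CellTiter-Glo One luminescence after 48 h at 37°C, and viability is given as a per-plate percentage of DMSO wells, with cell-free wells as background.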

NOMO1 [2] = assay: as above; details: HPLM + 10% dialyzed FBS, 48 h
Procedure, shortened: as §1

P12-Ichikawa [3] = assay: as above; details: 48 h
Procedure, shortened: as §1

SEM cells [4] = assay: AUC of viability dose-response curve (% viability x log10 dose units); higher = less sensitive; details: 48 h
Procedure, shortened: (§2)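 Over 48 h at 37°C, leukemia cells in 1536-well plates (500 or 1000 cells/well), adapted to each medium, received library compounds in DMSO at 11 threefold doses from 47 μM to 0.79 nM. CellTiter-Glo One luminescence, normalised per plate to DMSO and cell-free wells, was fitted by a four-parameter log-logistic function of log10 dose. The area under the curve was then integrated by trapezoidal rule, after scaling curves above full viability and removing those that failed quality control.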

NOMO1 [5] = assay: as above; details: 48 h
Procedure, shortened: as §2

P12-Ichikawa [6] = assay: as above; details: 48 h
Procedure, shortened: as §2

Cc1ccc([C@@H]2O[C@H](CO)[C@@H](O)[C@H](O)[C@H]2O)cc1Cc1ccc(-c2ccc(F)cc2)s1
cell viability [%]
Details	HPLM + 10% dialyzed FBS	RPMI 5 mM glucose + 10% FBS	RPMI 5 mM glucose + 10% dialyzed FBS
P12-Ichikawa [3], 0.000781 µM	119	118	114
P12-Ichikawa [3], 0.00234 µM	112	121	117
P12-Ichikawa [3], 0.00702 µM	119	135	118
P12-Ichikawa [3], 0.0211 µM	116	130	121
P12-Ichikawa [3], 0.0632 µM	126	129	132
P12-Ichikawa [3], 0.19 µM	127	132	132
P12-Ichikawa [3], 0.569 µM	126	128	134
P12-Ichikawa [3], 1.71 µM	127	126	131
P12-Ichikawa [3], 5.12 µM	127	131	118
P12-Ichikawa [3], 15.4 µM	125	125	120
P12-Ichikawa [3], 46.1 µM	90.3	77.7	69.9
SEM cells [1], 0.000781 µM	108	109	113
SEM cells [1], 0.00234 µM	112	117	103
SEM cells [1], 0.00702 µM	117	112	106
SEM cells [1], 0.0211 µM	112	122	118
SEM cells [1], 0.0632 µM	130	114	132
SEM cells [1], 0.19 µM	114	117	119
SEM cells [1], 0.569 µM	119	123	109
SEM cells [1], 1.71 µM	115	121	98.7
SEM cells [1], 5.12 µM	110	111	107
SEM cells [1], 15.4 µM	125	118	116
SEM cells [1], 46.1 µM	101	69.5	71.2

Details	AUC of viability dose-response curve	cell viability [%]
NOMO1 [2], 0.000781 µM	–	122
NOMO1 [2], 0.00234 µM	–	138
NOMO1 [2], 0.00702 µM	–	122
NOMO1 [2], 0.0211 µM	–	129
NOMO1 [2], 0.0632 µM	–	127
NOMO1 [2], 0.19 µM	–	129
NOMO1 [2], 0.569 µM	–	119
NOMO1 [2], 1.71 µM	–	127
NOMO1 [2], 5.12 µM	–	142
NOMO1 [2], 15.4 µM	–	122
NOMO1 [2], 46.1 µM	–	85.3
NOMO1 [5], HPLM + 10% dialyzed FBS	467	–
NOMO1 [5], RPMI 5 mM glucose + 10% FBS	468	–
NOMO1 [5], RPMI 5 mM glucose + 10% dialyzed FBS	472	–
P12-Ichikawa [6], HPLM + 10% dialyzed FBS	465	–
P12-Ichikawa [6], RPMI 5 mM glucose + 10% FBS	467	–
P12-Ichikawa [6], RPMI 5 mM glucose + 10% dialyzed FBS	465	–
SEM cells [4], HPLM + 10% dialyzed FBS	475	–
SEM cells [4], RPMI 5 mM glucose + 10% FBS	467	–
SEM cells [4], RPMI 5 mM glucose + 10% dialyzed FBS	468	–
